From patent US10092657B2, “Opsonized β-glucan preparations and methods” (Biothera, Inc., priority 2011, dated 2018)

Legend:
human neutrophils [1] = assay: iC3b staining on PGG β-glucan-bound neutrophils (flow cytometry, confocal microscopy); assay type: cell-based
Protocol: (§1) Binding of PGG β-glucan to neutrophils and PBMC was done as above. iC3b deposition on these cells was detected by staining with a neo-epitope specific anti-iC3b Ab and PE-conjugated goat anti-mouse IgG and analyzing by flow cytometry.
Enriched neutrophils, resuspended at 1×10^6 cells/mL in either RPMI supplemented with 20% serum or heat-inactivated serum, were mixed with PGG β-glucan before being applied to a 10 mm glass cover slip placed in the well of a 24-well plate. The plate was incubated in a 37° C., humidified 5% CO2 incubator for one hour. Unbound cells and PGG β-glucan were removed by washing with warmed PBS, and bound cells were subsequently fixed in 1% formaldehyde at room temp for 15 minutes. Cells were blocked with FCR blocking agent prior to staining with BFD IV and anti-iC3b monoclonal antibody for 30 minutes at 4° C., and followed by the secondary staining antibodies Cy5-conjugated goat anti-mouse IgM and Cy3-conjugated goat anti-mouse IgG at 4° C. for 30 minutes. Cells were penneabilized with 0.1% ice-cold TritonX-100 for three minutes on ice, stained with DAPI on ice for five minutes before mounting onto slides. Images were analyzed and acquired with Olympus FluoView 1000 IX2 Inverted confocal microscope. Images were adjusted equally in Adobe Photoshop (Adobe Systems Inc., San Jose, Calif.).

iC3b = target: T1, iC3b (Homo sapiens, UniProt P01024); assay: Immunoprecipitation of PGG β-glucan with BfD IV and detection of pulled-down iC3b; assay type: binding
T1 construct: from tissue
Protocol: PGG β-glucan or dextran at concentration 60-80 mg/mL was incubated with regular or HI serum at 1:10 volume ratio for 30 minutes in a 37° C. water bath. BfD IV Ab was added to the serum/β-glucan mixture and incubated at room temperature for additional 30 minutes. Magnetic beads conjugated with rat anti-mouse IgM (DYNABEADS, Invitrogen, Camarillo, Calif.) were washed three times with DPBS and incubated with serum-PGG β-glucan-BfD IV mixture for another 30 minutes at room temperature. The beads were separated magnetically and iC3b pulled-down along with immunoprecipitated PGG was probed using FITC-conjugated complement C3 Ab by flow cytometer.

human monocytes = assay: iC3b staining on PGG β-glucan-bound monocytes (flow cytometry); assay type: cell-based; conditions: 100 μg/mL; 10% serum; 37° C.; two hours
Excerpt: as §1

human neutrophils [2] = assay: Binding of PGG β-glucan after serum pre-treatment, neutrophils; assay type: cell-based; conditions: 200 μg/mL; 10% HI serum; two hours at 37° C.
Protocol: PGG β-glucan at concentration 60-80 mg/mL was incubated with human serum at 1:10 volume ratio for 30 minutes in a 37° C. water bath. The serum-pretreated PGG β-glucan was added to neutrophils at 200 μg/mL or to PBMC at 100 μg/mL resuspended in RPM1 containing either 10% regular autologous serum or 10% HI serum at indicated time and temperature of incubation. Binding was then determined as described previously.
To determine the role of complement proteins in binding, experiments were performed as described above except for using serum containing 10% HI, compstatin-treated or methylamine (MA)-treated, EGTA- or EGTA+MgCl2 (MgEGTA)-treated, or factor D-blocked serum. Heat-inactivated (HI) serum was prepared by incubating serum in a 56° C. water bath for 30 minutes. […] Treatment of serum with methylamine (MA) was done by incubating serum with 0.67% of methylamine for 2.5 hours at 37° C., followed by three washes with DPBS using Amicon centrifugal filter unit with a 3K MW cut-off (Millipore, Billerica, Mass.). DPBS-treated serum was prepared in the same manner and used as control serum for MA-treated serum. For blocking of factor D in the serum, 166-32 at concentration 20 μg/mL was incubated with serum on ice for 30 minutes, and then used for binding studies. […]

human neutrophils [3] = assay: Binding of DTAF-labeled PGG β-glucan to human neutrophils, with excess unlabeled competitor; assay type: cell-based; conditions: 10 mg/mL unlabeled competitor; 25 μg/mL DTAF-labeled β-glucan
Protocol: In early optimization experiments, neutrophils, monocytes, and T cells were identified by staining with fluorescently labeled anti-CD 15, anti-CD 14, or anti-CD3 Abs, respectively. Events were collected on a LSRII flow cytometer (BD Biosciences, San Jose, Calif.) and analysis was performed using FLOWJO (Tree Star, Ashland, Oreg.). For assessing binding of DTAF-labeled PGG β-glucan to human neutrophils, 25 βg/mL, 100 μg/mL, or 400 μg/mL of labeled β-glucan was added to neutrophils resuspended in RPMI/10% serum, incubated in a 37° C., 5% CO2 humidified incubator for one hour, washed twice with cold FACS buffer, and fixed with 1% paraformaldehyde. Surface binding of DTAF-conjugated β-glucan was subsequently assessed by flow cytometric analysis.

T1 sequence (P01024 749-1303 limits assumed): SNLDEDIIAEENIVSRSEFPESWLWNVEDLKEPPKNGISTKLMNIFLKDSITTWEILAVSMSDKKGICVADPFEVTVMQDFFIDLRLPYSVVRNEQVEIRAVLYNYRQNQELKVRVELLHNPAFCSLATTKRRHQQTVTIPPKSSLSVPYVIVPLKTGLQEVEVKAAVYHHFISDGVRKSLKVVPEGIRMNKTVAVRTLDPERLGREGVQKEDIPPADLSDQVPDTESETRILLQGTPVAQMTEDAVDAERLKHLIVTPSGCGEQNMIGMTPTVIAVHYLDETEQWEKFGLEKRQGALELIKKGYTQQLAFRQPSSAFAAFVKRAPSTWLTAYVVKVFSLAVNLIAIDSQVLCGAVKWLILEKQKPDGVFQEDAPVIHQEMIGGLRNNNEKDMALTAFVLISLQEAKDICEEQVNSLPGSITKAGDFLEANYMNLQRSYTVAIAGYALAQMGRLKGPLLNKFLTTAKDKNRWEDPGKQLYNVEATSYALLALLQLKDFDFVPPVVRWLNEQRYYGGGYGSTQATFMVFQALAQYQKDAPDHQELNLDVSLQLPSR
T1 sequence (P01024 23-667 partner limits assumed): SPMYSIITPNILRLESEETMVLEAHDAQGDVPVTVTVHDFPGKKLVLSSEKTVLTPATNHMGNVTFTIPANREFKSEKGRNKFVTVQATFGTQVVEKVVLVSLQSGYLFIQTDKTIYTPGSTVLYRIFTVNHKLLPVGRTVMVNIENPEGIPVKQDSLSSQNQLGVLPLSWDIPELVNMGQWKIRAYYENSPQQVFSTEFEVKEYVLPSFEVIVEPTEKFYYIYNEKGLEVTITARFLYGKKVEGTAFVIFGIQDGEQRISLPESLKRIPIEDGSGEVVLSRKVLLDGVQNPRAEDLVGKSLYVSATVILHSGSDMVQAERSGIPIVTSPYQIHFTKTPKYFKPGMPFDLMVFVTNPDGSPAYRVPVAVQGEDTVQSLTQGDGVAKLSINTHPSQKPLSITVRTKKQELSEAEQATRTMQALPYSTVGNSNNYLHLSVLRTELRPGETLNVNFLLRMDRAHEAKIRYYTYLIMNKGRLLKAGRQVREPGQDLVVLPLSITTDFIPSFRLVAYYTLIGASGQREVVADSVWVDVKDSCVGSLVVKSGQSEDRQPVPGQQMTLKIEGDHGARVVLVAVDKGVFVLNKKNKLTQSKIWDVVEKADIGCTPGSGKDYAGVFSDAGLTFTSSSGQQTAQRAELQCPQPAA
T1 sequence (P01024 1321-1663 partner limits assumed): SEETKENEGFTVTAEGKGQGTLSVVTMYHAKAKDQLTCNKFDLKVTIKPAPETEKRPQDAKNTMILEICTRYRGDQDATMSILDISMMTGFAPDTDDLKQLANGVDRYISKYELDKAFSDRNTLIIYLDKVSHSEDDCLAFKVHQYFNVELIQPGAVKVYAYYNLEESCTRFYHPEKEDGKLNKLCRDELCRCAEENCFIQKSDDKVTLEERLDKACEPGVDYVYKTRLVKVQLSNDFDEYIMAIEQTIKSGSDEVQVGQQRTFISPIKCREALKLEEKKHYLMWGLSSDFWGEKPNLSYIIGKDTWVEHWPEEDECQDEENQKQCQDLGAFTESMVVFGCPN

iC3b pulled down with BfD IV immunoprecipitate (iC3b; glucan incubated with HI serum): no iC3b was detected
iC3b pulled down with BfD IV immunoprecipitate (iC3b; glucan incubated with regular serum): iC3b protein was pulled-down
Substance: β(1,6)-[poly-1,3)-D-glucopyranosyl]-poly-β(1,3)-D-glucopyranose [PGG β-glucan]
iC3b staining on cells incubated with β-glucan vs serum alone (human neutrophils [1]; 200 μg/mL, 10% serum, 37° C., two hours): increased staining of iC3b
Co-localization of bound glucan and iC3b (confocal microscopy) (human neutrophils [1]; BfD IV and anti-iC3b double staining): co-localized
iC3b staining on cells incubated with β-glucan vs serum alone (human monocytes): increased staining of iC3b
Extent of rescued binding to cells in HI serum (MFI, percentage of BfD IV positive cells) (human neutrophils [2]): minimal
Blocking of DTAF-labeled β-glucan staining by excess unlabeled glucan (human neutrophils [3]): blocked by excess unlabeled β-glucan
